Laboratory results published in PubChem BioAssay (NCI).
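Growth conditions: 96-well plates. Treatment: test compound, 48 hours, 5 concentrations. Analysis: linear interpolation between bracketing concentrations; unreached endpoints set to highest concentration. GI50: concentration for 50% inhibition of growth. TGI is the concentration that stops growth completely.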

How the values were obtained:
Assay in all cases: inhibition of tumour cell growth, NCI panel, 48 h
UO-31 renal = tested on: UO-31 renal
HCT-15 colon = tested on: HCT-15 colon
A549 NSCLC = tested on: A549 NSCLC
NCI-H522 lung = tested on: NCI-H522 lung
HOP-62 NSCLC = tested on: HOP-62 NSCLC
M14 melanoma = tested on: M14 melanoma
SK-MEL-2 melanoma = tested on: SK-MEL-2 melanoma
OVCAR-8 ovarian = tested on: OVCAR-8 ovarian
CAKI-1 renal = tested on: CAKI-1 renal
MDA-MB-435 = tested on: MDA-MB-435

Row | SMILES | GI50 (UO-31 renal) [µM] | TGI (UO-31 renal) [µM] | GI50 (HCT-15 colon) [µM] | TGI (HCT-15 colon) [µM] | GI50 (A549 NSCLC) [µM] | TGI (A549 NSCLC) [µM] | GI50 (NCI-H522 lung) [µM] | TGI (NCI-H522 lung) [µM] | GI50 (HOP-62 NSCLC) [µM] | TGI (HOP-62 NSCLC) [µM] | GI50 (M14 melanoma) [µM] | TGI (M14 melanoma) [µM] | GI50 (SK-MEL-2 melanoma) [µM] | TGI (SK-MEL-2 melanoma) [µM] | GI50 (OVCAR-8 ovarian) [µM] | TGI (OVCAR-8 ovarian) [µM] | GI50 (CAKI-1 renal) [µM] | TGI (CAKI-1 renal) [µM] | GI50 (MDA-MB-435) [µM] | TGI (MDA-MB-435) [µM]
1 | COc1ccc(/C=C\c2cc(OC)c(OC)c(OC)c2)cc1OC(=O)c1cccc(Cn2cc(CCOC(=O)[C@H](N)Cc3cn(C)c4ccccc34)nn2)c1 | 0.192 | > 45.1 | < 0.01 | > 44 | 0.0322 | > 100 | < 0.01 | 29.4 | < 0.01 | > 100 | < 0.01 | 16.9 | 15.4 | > 83.5 | < 0.01 | > 100 | < 0.0139 | > 61.3 | – | –
2 | CCCCCCCCCCCCCC(=O)CC(=O)c1c(O)cccc1O | – | > 100 | – | 58.8 | – | > 100 | – | 59.1 | – | > 100 | – | > 100 | – | 41.4 | – | > 100 | – | 76.1 | – | –
3 | CCC/C(=N/NC(=O)C(N)=O)C(CC)C(=O)CCC(=O)N(Cc1ccccc1)Cc1ccccc1 (centres undefined) | – | > 100 | – | > 100 | – | > 100 | – | > 100 | – | > 100 | – | > 100 | – | > 100 | – | > 100 | – | > 100 | – | –
4 | O=c1cc2ccccc2nn1Cc1cccc(Cl)c1 | – | > 100 | – | > 100 | – | > 100 | – | – | – | > 100 | – | > 100 | – | > 100 | – | > 100 | – | > 100 | – | –
5 | CC1(CO)OC(n2cc(C(=O)NC(=O)OCc3ccccc3)c(=O)[nH]c2=O)CC1O (centres undefined) | – | > 100 | – | > 100 | – | > 100 | – | > 100 | – | > 100 | – | > 100 | – | – | – | > 100 | – | > 100 | – | –
6 | COC(=O)C1=C(C(=O)ON)C2C=CC1(C(Cc1ccccc1)Nc1ccccc1)O2 (centres undefined) | 1.47 | 2.8 | 1.73 | 3.5 | 15.2 | 29.4 | 1.45 | 2.98 | 14.4 | 27.9 | – | – | 11.6 | 24.4 | 2.75 | 8.71 | 1.63 | 3.03 | 1.92 | 3.86
7 | NC(N)=N/N=C\c1cccc(OCc2ccccc2)c1 | 7.35 | 27.9 | 3.29 | 12.9 | 9.2 | 24.1 | 2.16 | 11.3 | 5.16 | 19.1 | – | – | 3.31 | 13 | 6.58 | 38.8 | 7.5 | 22.2 | 1.97 | 4.56
8 | CC(=O)[CH-]C(=O)c1ccccc1.CC(=O)[CH-]C(=O)c1ccccc1.CC1(C)C2CCC1(C)C([O-])C2.CC1(C)C2CCC1(C)C([O-])C2.[Ti+4] | 27.8 | 93.8 | 30.9 | > 100 | 23.9 | > 100 | – | – | 25.7 | 81.8 | 20.4 | 44.1 | 14.2 | 29.6 | 44.9 | > 100 | 51.4 | > 100 | – | –
9 | Cc1ccccc1C(=O)c1ccccc1O | – | > 100 | – | > 100 | – | > 100 | – | – | – | > 100 | – | > 100 | – | > 100 | – | > 100 | – | > 100 | – | –
10 | COC(=O)N1CCc2c(nc(N(C)CCO)[nH]c2=O)C1 | – | > 100 | – | > 100 | – | > 100 | – | > 100 | – | > 100 | – | > 100 | – | > 100 | – | > 100 | – | > 100 | – | –
11 | CCOc1ccc(-c2nonc2NC(=O)c2cccc(C)c2)cc1OCC | > 100 | > 100 | > 100 | > 100 | > 100 | > 100 | > 100 | > 100 | > 100 | > 100 | – | – | > 100 | > 100 | > 100 | > 100 | 74 | > 100 | > 100 | > 100
12 | CN(C)c1ccc([O][Bi]([Cl])[Cl])cc1 | > 100 | > 100 | > 100 | > 100 | > 100 | > 100 | – | – | – | – | 87 | > 100 | > 100 | > 100 | 53.2 | > 100 | > 100 | > 100 | – | –
13 | COC(=O)/C([Se]c1c(C)cc(C)cc1C)=C(\[Se]c1c(C)cc(C)cc1C)C(=O)OC | – | > 100 | – | > 100 | – | > 100 | – | > 100 | – | > 100 | – | > 100 | – | > 100 | – | > 100 | – | > 100 | – | –
14 | O=S1CCS(=O)CCS(=O)CC1 (centres undefined) | – | > 100 | – | > 100 | – | > 100 | – | > 100 | – | > 100 | – | > 100 | – | – | – | > 100 | – | – | – | > 100
15 | COC(=O)C(=O)OC1(C(C)=O)CC2(c3ccccc3)OC1(c1ccccc1)c1ccccc12 (centres undefined) | – | 29.9 | – | 34.1 | – | 31.3 | – | 34.7 | – | 32.8 | – | 31.9 | – | – | – | 30.3 | – | 39.9 | – | –
16 | CCn1c(CN2CCN(Cc3ccccc3)CC2)nc2cc(NC(=O)c3cccs3)ccc21 | 15.3 | 42.6 | 14.1 | 51.6 | – | – | – | – | 17.7 | 38 | 16.9 | 33.4 | 20 | 39.3 | 20.1 | 55.9 | 18 | 63 | 14.8 | 28.9
17 | Clc1ccc2c(c1)C1C(CO2)C(c2ccccc2)=NN1c1ccccc1 (centres undefined) | – | 53.9 | – | – | – | > 100 | – | – | – | > 100 | – | – | – | 75.4 | – | > 100 | – | – | – | –
18 | Fc1ccc2c(c1)c(-c1nc(-c3c[nH]c4ncccc34)cs1)cn2CCCN1CCCCC1 | 1.28 | 2.64 | – | – | 1.91 | 3.62 | – | – | – | – | 1.76 | 3.48 | 1.96 | 4.25 | – | – | – | – | 1.66 | 3.17
